Laboratory results: patent US20050106220A1, “Agent for improving mobility and general health of senior companion animals” (priority 2003, published 2005)

How the values were obtained:
Format in all cases: in vivo
senior dogs [1] = assay: Intravenous SKF 97541 in a senior dog, turning motion; settings: Shiba Ken B (15 years old), single intravenous dose of from 0.01 to 0.1 mg/kg body weight
Protocol: SKF 97541 was intravenously administered once to Shiba Ken B (15 years old) at a dose of from 0.01 to 0.1 mg/kg body weight.

sympathetic nerve = assay: RR interval by Holter ECG after oral GABA in Beagle dogs; settings: 10 month old Beagle dogs
Protocol: Three 10 month old Beagle dogs were confined in darkness from 19:00 (7pm) until 7:00 (7am). An electrocardiogramr was obtained under free movement using a Holter ECG recorder (wireless installation-type ECG recorder). An electrocardiogram was obtained every 30 minutes for 1 minute. A capsule containing 300 mg/kg body weight of GABA was orally administered to each dog just before the dark period. As a control, an empty capsule was administered.
An RR interval (msec, inverse number of a heart rate) relative to the time that lapsed after administration was measured.

senior dogs [2] = assay: Dog food mixed with GABA fed to senior dogs, observation of age-related conditions; settings: 2 weeks
Protocol: Dog food was mixed with GABA (30 mg/kg body weight). Mongrel dog A (17 years old) was fed this mixture once a day in the evening for 2 weeks. […] Dog food was mixed with GABA (30 mg/kg body weight). Mongrel dog B (14 years old) was fed this mixture once a day for 2 weeks. […] Dog food was mixed with GABA (30 mg/kg body weight). Toy poodle A (15 years old) was fed this mixture once a day for 2 weeks. […] Dog food was mixed with GABA (30 mg/kg body weight). Toy poodle B (12 years old) was fed this mixture once a day for 2 weeks. […] Dog food was mixed with GABA (30 mg/kg body weight). Pomeranian A (14 years old) was fed this mixture once a day for 2 weeks. […] Dog food was mixed with GABA (30 mg/kg body weight). Shiba Ken (Japanese breed) A (16 years old) was fed with this mixture once a day for 2 weeks.

[3] = Mongrel dog B (14 years old), 30 mg/kg body weight in dog food once a day
[4] = Pomeranian A (14 years old), 30 mg/kg body weight in dog food once a day
[5] = Shiba Ken A (16 years old), 30 mg/kg body weight in dog food once a day
[6] = Toy poodle A (15 years old), 30 mg/kg body weight in dog food once a day
[7] = Toy poodle B (12 years old), 30 mg/kg body weight in dog food once a day

Row | Compound | turning motion (senior dogs [1]) | stimulus of the sympathetic nerve (sympathetic nerve; GABA 300 mg/kg body weight oral capsule) | average RR interval (inverse number of a heart rate) (sympathetic nerve; GABA 300 mg/kg body weight oral capsule before dark period, approximately 2 to 9 hours after administration, vs empty capsule) | forced and labored breathing (senior dogs [2]; Mongrel dog A (17 years old), 30 mg/kg body weight in dog food once a day in the evening) | drinking behaviour (senior dogs [2]; [3]) | leg trembling (senior dogs [2]; [3]) | mobility and general health (senior dogs [2]; [3]) | continuous sleeping all day long (senior dogs [2]; [4]) | desire to go for a walk (senior dogs [2]; [4]) | general health and activity level (senior dogs [2]; [4]) | ability to move around (senior dogs [2]; [5]) | mobility (senior dogs [2]; [5]) | behaviour towards owner (senior dogs [2]; [6]) | difficult breathing (senior dogs [2]; [6]) | sense of hearing and sense of smell, mobility and general health (senior dogs [2]; [6]) | mobility (senior dogs [2]; [7]) | walking (tottering steps before administration) (senior dogs [2]; [7])
1 | CP(=O)(O)CCCN [SKF 97541, 3-aminopropyl(methyl)phosphinic acid] | eliminated at any dose |  |  |  |  |  |  |  |  |  |  |  |  |  |  |  | 
2 | NCCCC(=O)O [GABA, γ-aminobutyric acid] |  | stimulus of the sympathetic nerve was observed | shortened | disappeared | drank water on its own | disappeared | improvement in mobility and general health was observed | decreased | clearly showed signs that he wanted to go for a walk | improvement in general health and activity level was observed | able to move around easier and clearly with less pain | improvement in mobility was observed | sought out his owner and wanted to stay by him | decreased | improvement | improvement in mobility was observed | walked firmly with steady steps
